Like-named read-outs stand apart in the source and are kept apart here.
Experiments:
[1] = Pharmacokinetics of ASA given orally or sublingually in healthy volunteers (plasma ASA by LC-MS); format: in vivo; details: human, tablet; for AUC(0-t): read-out: AUC (0-24 h)
Protocol: The pharmaceutical composition obtained by co-grinding a micronized drug with gelatine was tested in healthy volunteers in order to verify whether the product, in its amorphized form, brought advantages from the standpoint of bioavailability and an enhanced clinical effectiveness associated with an improvement in the safety profile. These tests confirmed that the co-grinding process and simultaneous amorphization of ASA with collagen enables a better absorption of the drug without compromising its effectiveness.
In particular, the administration of the pharmaceutical composition of ASA+collagen after co-grinding in tablet form at doses of 50 and 100 mg given sublingually and orally in groups of 20 healthy volunteers brought about an increase in the plasma concentrations of ASA, determined using the LC-MS method, compared to the administration of equivalent doses of ASA in crystalline form administered sublingually or orally.

gastric mucosa = assay: Gastroerosive activity of oral ASA on the gastric mucosa of Wistar rats (ulcer index, histopathology); format: in vivo; details: ASA 400 mg/Kg oral
Protocol: In view of this, it was decided to test the effect of the micronization of ASA (400 mg/Kg) and co-grinding thereof with collagen through oral administration on the mucosa of Wistar rats weighing 210 g and compare it with the effects of the administration of ASA (400 mg/Kg) in its non-micronized form.
In particular, a calculation was made of the effect of ASA on the so-called “ulcer score”, according to a method that differentiates the damage due to the acute administration of high doses of ASA given orally into classes of severity which range from the absence of lesions to the maximum score, which is equivalent to ulcers equal to or greater than 6 mm. Furthermore, an analysis was made of the effects of ASA, in the two formulations used, on the histopathological damage of the gastric mucosa after periodic acid Schiff/Alcian blue staining of the histological samples taken from the animals after the two treatments (FIG. 7).

[2] = amorphized by co-grinding with β-cyclodextrin or other polymers; cited from earlier work
thromboxane B2 = assay: Plasma thromboxane B2 / urinary thromboxane metabolites after ASA in healthy volunteers; format: in vivo; details: plasma and urine ASA and urinary thromboxane metabolites, 7 days
Protocol: This effect was accompanied by a considerable therapeutic effectiveness, given that the plasma peak of thromboxane B2, a biomarker of the anti-aggregation effectiveness of ASA, came 1.5 hours earlier than with the crystalline form of the drug (FIG. 4). […] This fact was confirmed by examining both the plasma and urine concentrations of ASA and of the urinary metabolites of thromboxane after 7 days of administration (FIG. 5).

CC(=O)Oc1ccccc1C(=O)O [ASA n.m., acetylsalicylic acid]
Cmax ([1]; ASA 50 mg oral): 269 ± 85.4 ng/mL
AUC(0-t) ([1]; ASA 50 mg oral): 532 ± 123 ng·h/mL
Cmax ([1]; ASA 50 mg sublingual): 314 ± 89.5 ng/mL
AUC(0-t) ([1]; ASA 50 mg sublingual): 675 ± 75.6 ng·h/mL
Cmax ([1]; ASA 100 mg oral): 460 ± 73.2 ng/mL
Cmax ([1]; ASA 100 mg sublingual): 543 ± 68.3 ng/mL
Ulcer index (gastric mucosa; listed as NM-ASA): 36.12 ± 4.2
Ulcer index (gastric mucosa; listed as non-micronized ASA): 36.12±4.2
histopathological damage of the gastric mucosa (gastric mucosa; periodic acid Schiff/Alcian blue staining): degeneration of cells of the gastric mucosa

CC(=O)[O][Pt]([NH2])([Cl])([Cl])([NH]C1CCCCC1)[O]C(C)=O [JM216, bis-acetato-ammine-dichloro-cyclohexylamine-platinum (IV)]
water solubility [2]: greater water solubility

collagen
effects of collagen on its own (thromboxane B2): no significant effects

Reference: patent publication US20180353429A1, “PRODUCT COMPRISING HYDROLIZED COLLAGEN AND AT LEAST ONE AMORPHOUS MICRONIZED DRUG, PROCESS FOR THE PREPARATION THEREOF AND RELATED USES IN MEDICAL FIELD” (S.B.M. S.r.l., priority 2015, published 2018)
